Test results taken from patent US20260262643A1, “HERBICIDAL BENZOXAZINES” (FMC CORPORATION, priority 2022, published 2026).

What was measured:
soybean [1] = assay: Test A postemergence; assay type: in vivo, Glycine max; conditions: 500 g ai/ha, postemergence, 10 days, visual injury, 0 to 100 scale (0 no effect, 100 complete control)
Outline: (§1)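 Loam/sand soil; pre-em directed soil spray at planting, post-em spray at 1–2 leaf (2–10 cm). Compound in non-phytotoxic solvent + surfactant. Greenhouse 10 d; visual injury vs untreated, 0 = no effect, 100 = complete control.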

ragweed [2] = assay: Test A postemergence; assay type: in vivo, Ambrosia artemisiifolia; conditions: 500 g ai/ha, postemergence, 10 days, visual injury, 0 to 100 scale (0 no effect, 100 complete control)
Outline: as §1

corn [3] = assay: Test A preemergence; assay type: in vivo, Zea mays
Outline: as §1

barnyardgrass = assay: Test B flooded paddy test; assay type: in vivo, Echinochloa crus-galli; conditions: 250 g ai/ha, Flood, 13 days, 0 to 100 scale (0 no effect, 100 complete control)
Outline: (§2)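 Compound is introduced into paddy water covering soil by 3 cm, treating plants that have reached two leaves. Pots are kept flooded at that depth under greenhouse conditions. Assessment at 13 days gives a 0–100 visual control score.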

goosegrass [4] = assay: Test A postemergence; assay type: in vivo, Eleusine indica; conditions: postemergence, 10 days, visual injury, 0 to 100 scale (0 no effect, 100 complete control)
Outline: as §1

oat, wild [5] = assay: Test A postemergence; assay type: in vivo, Avena fatua; conditions: 500 g ai/ha, postemergence, 10 days, visual injury, 0 to 100 scale (0 no effect, 100 complete control)
Outline: as §1

pigweed, palmer [6] = assay: Test A postemergence; assay type: in vivo, Amaranthus palmeri; conditions: 500 g ai/ha, postemergence, 10 days, visual injury, 0 to 100 scale (0 no effect, 100 complete control)
Outline: as §1

soybean [7] = assay: Test A preemergence; assay type: in vivo, Glycine max
Outline: as §1

horseweed = assay: Test A postemergence; assay type: in vivo, Erigeron canadensis; conditions: postemergence, 10 days, visual injury, 0 to 100 scale (0 no effect, 100 complete control)
Outline: as §1

wheat [8] = assay: Test A preemergence; assay type: in vivo, Triticum aestivum
Outline: as §1

blackgrass [9] = assay: Test A postemergence; assay type: in vivo, Alopecurus myosuroides
Outline: as §1

rice = assay: Test B flooded paddy test; assay type: in vivo, Oryza sativa; conditions: 250 g ai/ha, Flood, 13 days, 0 to 100 scale (0 no effect, 100 complete control)
Outline: as §2

kochia [10] = assay: Test A postemergence; assay type: in vivo, Bassia scoparia; conditions: postemergence, 10 days, visual injury, 0 to 100 scale (0 no effect, 100 complete control)
Outline: as §1

foxtail, giant [11] = assay: Test A preemergence; assay type: in vivo, Setaria faberi
Outline: as §1

ducksalad = assay: Test B flooded paddy test; assay type: in vivo, Heteranthera limosa; conditions: 250 g ai/ha, Flood, 13 days, 0 to 100 scale (0 no effect, 100 complete control)
Outline: as §2

ryegrass, Italian [12] = assay: Test A postemergence; assay type: in vivo, Lolium multiflorum; conditions: 500 g ai/ha, postemergence, 10 days, visual injury, 0 to 100 scale (0 no effect, 100 complete control)
Outline: as §1

foxtail, giant [13] = assay: Test A postemergence; assay type: in vivo, Setaria faberi; conditions: postemergence, 10 days, visual injury, 0 to 100 scale (0 no effect, 100 complete control)
Outline: as §1

oat, wild [14] = assay: Test A preemergence; assay type: in vivo, Avena fatua
Outline: as §1

blackgrass [15] = assay: Test A preemergence; assay type: in vivo, Alopecurus myosuroides
Outline: as §1

kochia [16] = assay: Test A preemergence; assay type: in vivo, Bassia scoparia
Outline: as §1

corn [17] = assay: Test A postemergence; assay type: in vivo, Zea mays; conditions: postemergence, 10 days, visual injury, 0 to 100 scale (0 no effect, 100 complete control)
Outline: as §1

ryegrass, Italian [18] = assay: Test A preemergence; assay type: in vivo, Lolium multiflorum
Outline: as §1

galium = assay: Test A postemergence; assay type: in vivo, Galium aparine; conditions: postemergence, 10 days, visual injury, 0 to 100 scale (0 no effect, 100 complete control)
Outline: as §1

pigweed, palmer [19] = assay: Test A preemergence; assay type: in vivo, Amaranthus palmeri
Outline: as §1

ragweed [20] = assay: Test A preemergence; assay type: in vivo, Ambrosia artemisiifolia
Outline: as §1

wheat [21] = assay: Test A postemergence; assay type: in vivo, Triticum aestivum; conditions: 500 g ai/ha, postemergence, 10 days, visual injury, 0 to 100 scale (0 no effect, 100 complete control)
Outline: as §1

goosegrass [22] = assay: Test A preemergence; assay type: in vivo, Eleusine indica
Outline: as §1

sedge, umbrella = assay: Test B flooded paddy test; assay type: in vivo, Cyperus difformis; conditions: 250 g ai/ha, Flood, 13 days, 0 to 100 scale (0 no effect, 100 complete control)
Outline: as §2

[23] = 125 g ai/ha, visual injury after 10 days, 0 to 100 scale, 0 is no effect, 100 is complete control
[24] = 500 g ai/ha, 0 to 100 scale (0 no effect, 100 complete control), 10 days
[25] = 125 g ai/ha, postemergence, 10 days, visual injury, 0 to 100 scale (0 no effect, 100 complete control)
[26] = 500 g ai/ha, Postemergence, 0 to 100 scale

Cc1cccc2c1O[C@@H](C)CN2C(=O)c1cccc(-n2cnc(Cl)n2)c1 [Compound 69]
Plant response rating, Soybean (soybean [1]): 100 | Plant response rating, Ragweed (ragweed [2]): 30 | Plant response rating, Corn (corn [3]; [23]): 30 | Plant response rating, Corn (corn [3]; [24]): 30 | Plant response rating, Barnyardgrass (barnyardgrass): 0 | Plant response rating, Goosegrass (goosegrass [4]; 125 g ai/ha): 0 | Plant response rating, Goosegrass (goosegrass [4]; 500 g ai/ha): 20 | Plant response rating, Oat, Wild (oat, wild [5]): 30 | Plant response rating, Pigweed, Palmer (pigweed, palmer [6]): 40 | Plant response rating, Soybean (soybean [7]; [23]): 0 | Plant response rating, Soybean (soybean [7]; [24]): 0 | Plant response rating, Horseweed (horseweed; 125 g ai/ha): 0 | Plant response rating, Horseweed (horseweed; 500 g ai/ha): 0 | Plant response rating, Wheat (wheat [8]; [23]): 10 | Plant response rating, Wheat (wheat [8]; [24]): 20 | Plant response rating, Blackgrass (blackgrass [9]; [25]): 0 | Plant response rating, Blackgrass (blackgrass [9]; [26]): 60 | Plant response rating, Rice (rice): 0 | Plant response rating, Kochia (kochia [10]; 125 g ai/ha): 20 | Plant response rating, Kochia (kochia [10]; 500 g ai/ha): 60 | Plant response rating, Foxtail, Giant (foxtail, giant [11]; [23]): 90 | Plant response rating, Foxtail, Giant (foxtail, giant [11]; [24]): 90 | Plant response rating, Ducksalad (ducksalad): 0 | Plant response rating, Ryegrass, Italian (ryegrass, Italian [12]): 70 | Plant response rating, Foxtail, Giant (foxtail, giant [13]; 125 g ai/ha): 20 | Plant response rating, Foxtail, Giant (foxtail, giant [13]; 500 g ai/ha): 80 | Plant response rating, Oat, Wild (oat, wild [14]; [23]): 20 | Plant response rating, Oat, Wild (oat, wild [14]; [24]): 70 | Plant response rating, Blackgrass (blackgrass [15]; [23]): 40 | Plant response rating, Blackgrass (blackgrass [15]; [24]): 90 | Plant response rating, Kochia (kochia [16]; [23]): 60 | Plant response rating, Kochia (kochia [16]; [24]): 70 | Plant response rating, Corn (corn [17]; 125 g ai/ha): 10 | Plant response rating, Corn (corn [17]; 500 g ai/ha): 30 | Plant response rating, Ryegrass, Italian (ryegrass, Italian [18]; [23]): 80 | Plant response rating, Ryegrass, Italian (ryegrass, Italian [18]; [24]): 80 | Plant response rating, Galium (galium; 125 g ai/ha): 60 | Plant response rating, Galium (galium; 500 g ai/ha): 100 | Plant response rating, Pigweed, Palmer (pigweed, palmer [19]; [23]): 20 | Plant response rating, Pigweed, Palmer (pigweed, palmer [19]; [24]): 90 | Plant response rating, Ragweed (ragweed [20]; [23]): 0 | Plant response rating, Ragweed (ragweed [20]; [24]): 0 | Plant response rating, Wheat (wheat [21]): 10 | Plant response rating, Goosegrass (goosegrass [22]; [23]): 90 | Plant response rating, Goosegrass (goosegrass [22]; [24]): 100 | Plant response rating, Sedge, Umbrella (sedge, umbrella): 0

C[C@H]1CN(C(=O)c2cc(-n3cncn3)ccc2C(F)(F)F)c2cccc(Cl)c2O1 [Compound 70]
Plant response rating, Soybean (soybean [1]): 100 | Plant response rating, Ragweed (ragweed [2]): 0 | Plant response rating, Corn (corn [3]; [23]): 10 | Plant response rating, Corn (corn [3]; [24]): 20 | Plant response rating, Barnyardgrass (barnyardgrass): 0 | Plant response rating, Goosegrass (goosegrass [4]; 125 g ai/ha): 10 | Plant response rating, Goosegrass (goosegrass [4]; 500 g ai/ha): 10 | Plant response rating, Oat, Wild (oat, wild [5]): 10 | Plant response rating, Pigweed, Palmer (pigweed, palmer [6]): 70 | Plant response rating, Soybean (soybean [7]; [23]): 0 | Plant response rating, Soybean (soybean [7]; [24]): 0 | Plant response rating, Horseweed (horseweed; 125 g ai/ha): 0 | Plant response rating, Horseweed (horseweed; 500 g ai/ha): 0 | Plant response rating, Wheat (wheat [8]; [23]): 0 | Plant response rating, Wheat (wheat [8]; [24]): 10 | Plant response rating, Blackgrass (blackgrass [9]; [25]): 30 | Plant response rating, Blackgrass (blackgrass [9]; [26]): 70 | Plant response rating, Rice (rice): 0 | Plant response rating, Kochia (kochia [10]; 125 g ai/ha): 10 | Plant response rating, Kochia (kochia [10]; 500 g ai/ha): 60 | Plant response rating, Foxtail, Giant (foxtail, giant [11]; [23]): 20 | Plant response rating, Foxtail, Giant (foxtail, giant [11]; [24]): 100 | Plant response rating, Ducksalad (ducksalad): 0 | Plant response rating, Ryegrass, Italian (ryegrass, Italian [12]): 30 | Plant response rating, Foxtail, Giant (foxtail, giant [13]; 125 g ai/ha): 10 | Plant response rating, Foxtail, Giant (foxtail, giant [13]; 500 g ai/ha): 30 | Plant response rating, Oat, Wild (oat, wild [14]; [23]): 0 | Plant response rating, Oat, Wild (oat, wild [14]; [24]): 70 | Plant response rating, Blackgrass (blackgrass [15]; [23]): 30 | Plant response rating, Blackgrass (blackgrass [15]; [24]): 80 | Plant response rating, Kochia (kochia [16]; [23]): 0 | Plant response rating, Kochia (kochia [16]; [24]): 0 | Plant response rating, Corn (corn [17]; 125 g ai/ha): 10 | Plant response rating, Corn (corn [17]; 500 g ai/ha): 10 | Plant response rating, Ryegrass, Italian (ryegrass, Italian [18]; [23]): 50 | Plant response rating, Ryegrass, Italian (ryegrass, Italian [18]; [24]): 90 | Plant response rating, Galium (galium; 125 g ai/ha): 50 | Plant response rating, Galium (galium; 500 g ai/ha): 80 | Plant response rating, Pigweed, Palmer (pigweed, palmer [19]; [23]): 20 | Plant response rating, Pigweed, Palmer (pigweed, palmer [19]; [24]): 90 | Plant response rating, Ragweed (ragweed [20]; [23]): 0 | Plant response rating, Ragweed (ragweed [20]; [24]): 0 | Plant response rating, Wheat (wheat [21]): 20 | Plant response rating, Goosegrass (goosegrass [22]; [23]): 70 | Plant response rating, Goosegrass (goosegrass [22]; [24]): 100 | Plant response rating, Sedge, Umbrella (sedge, umbrella): 0
